Assay results: patent US20110306775A1, “SYNTHESIS AND BIOLOGICAL EVALUATION OF 2',5'-DIMETHOXYCHALCONE DERIVATIVES AS MICROTUBULE-TARGETED ANTICANCER AGENTS” (KAOHSIUNG MEDICAL UNIVERSITY, priority 2010, published 2011)
“Also recorded” adds a separate entry of the source.

What was measured:
PC3 cells [1] = assay: MTT cytotoxicity assay, PC3 cells; type: cell-based, human; conditions: for IC50: mean ± SD, n = 3-5
Excerpt: (§1) The cell lines of the present invention were an human urothelial carcinoma cell line (NTUB1), a human prostate cancer cell line (PC3), a human lung adenocarcinoma epithelial cell line (A549) and a SV-40 immortalized human uroepithelial cell line (SV-HUC1). However, the cell lines applied in the present invention includes but not limit in NTUB1, PC3, A549 and SV-HUC1 cells. Other cell lines having the same characteristics or not exactly the same characteristics are able to be used in the present invention. NTUB1, PC3 and A549 cells were maintained in RPMI 1640 and SV-HUC1 cells were maintained in F12 medium supplemented with 10% fetal bovine serum (FBS), 100 unit/mL penicillin-G, 100 μg/mL streptomycin and 2 mM glutamine. The cells were cultured at 37° C. in a humidified atmosphere containing 5% carbon dioxide.
(§2) The cytotoxic effect of compounds 1 to 18 of the present invention and cisplatin (positive control) on the cell lines was evaluated using 3-[4,5-dimethylthiazol-2-yl]-2,5-diphenyltetrazolium bromide (MTT) assay. Briefly, the cells were plated at a density of 1800 cells/well in 96-well plates and incubated in the presence of graded concentrations of compounds 1 to 18 and cisplatin at 37° C. for 72 hours. At the end of the culture period, 50 μL of MTT ([…] in PBS) was added to each well and allowed to react for 3 hours. Following centrifugation of plates at 1000 g for 10 minutes, media were removed and 150 μL dimethyl sulfoxide (DMSO) were added to each well. The proportions of surviving cells were determined by absorbance spectrometry at 540 nm. The cell viability was expressed as a percentage to the viable cells of control culture condition. The IC50 value of each group were calculated by the median-effect analysis and presented as mean±standard deviation (SD).

NTUB1 cells [2] = assay: MTT cytotoxicity assay, NTUB1 cells; type: cell-based, human; conditions: for IC50: mean ± SD, n = 3-5
Excerpt: as §1, §2

NTUB1 cells [3] = assay: Immuno-fluorescence staining of α-tubulin in NTUB1 cells; type: cell-based, human
Description: In brief, NTUB 1 cells were seeded onto serum-coated coverslides. The cells were fixed with 2% formaldehyde/PBS for 20 minutes followed by cold methanol permeabilization for 3 minutes. The cells were washed with 1×PBS five minutes twice. The cells were then incubated with α-tubulin primary antibody overnight. The cells were washed with 1×PBS five minutes thrice. Goat anti-rabbit-rhodamine secondary antibody and 1 μg/mL 4′-6-diamidino-2-phenylindole (DAPI) were incubated for 1 hour at room temperature. The slides were washed with 1×PBS, mounted with mounting solution (80% glycerol/PBS) and photographed by microscopy.

SV-HUC1 cells = assay: MTT cytotoxicity assay, SV-HUC1 cells; type: cell-based, human; conditions: FIG. 1, compared with NTUB1 and PC3
Excerpt: as §1
(§3) The cytotoxic effect of compounds 1 to 18 of the present invention and cisplatin (positive control) on the cell lines was evaluated using 3-[4,5-dimethylthiazol-2-yl]-2,5-diphenyltetrazolium bromide (MTT) assay. […] The proportions of surviving cells were determined by absorbance spectrometry at 540 nm. The cell viability was expressed as a percentage to the viable cells of control culture condition. The IC50 value of each group were calculated by the median-effect analysis and presented as mean±standard deviation (SD).

PC3 cells [4] = assay: Cell cycle analysis (propidium iodide, flow cytometer), PC3 cells; type: cell-based, human; conditions: FIG. 3
Description: (§4) DNA content was determined following propidium iodide (PI) staining of cells. Briefly, 6×10^5 cells were plated and treated with 20 μM cisplatin and various concentrations of compounds 11 and 15 for 24 hours, respectively. These cells were harvested by trypsinization, washed with 1×PBS, and fixed in ice-cold MeOH at −20° C. After overnight incubation, the cells were washed with PBS and incubated with 50 μg/mL propidium iodide and 50 μg/mL RNase A in PBS at room temperature for 30 minutes. The fractions of cells in each phase of cell cycle were analyzed using flow cytometer.

A549 cells = assay: MTT cytotoxicity assay, A549 cells; type: cell-based, human; conditions: FIG. 1, compared with NTUB1 and PC3
Excerpt: as §1, §3

NTUB1 cells [5] = assay: Cell cycle analysis (propidium iodide, flow cytometer), NTUB1 cells; type: cell-based, human; conditions: NTUB1, 1 μM, 24 hours, FIG. 2
Description: as §4

α-tubulin = assay: Western blot analysis for α-tubulin (soluble vs assembled) in NTUB1 cells; type: cell-based, human; conditions: 6 hours, FIG. 4
Description: NTUB1 cells were seeded at a density of 1×10^6/[…] dishes and treated with indicated concentrations of test agents for 6 hours. The cells were then washed with cold PBS and lysed by adding lysis buffer (20 mM Tris-HCl (pH 6.8), 1 mM MgCl2, 2 mM EGTA (ethylene glycol tetraacetic acid), […] aprotinin, […], 1 mM phenylmethylsulfonyl fluoride, 1 mM orthovanadate, and 0.5% Nonidet P-40). The cell lysates were centrifuged at 15,000 g for 10 min at 4° C. Soluble and assembled tubulin could be separated in supernatant and pellet fraction, respectively. The supernatants and pellets were […] by the sodium dodecyl sulfate (SDS)-polyacrylamide gel electrophoresis assay. The relative amounts of tubulins transferred on the nitrocellulose membrane were detected by anti-tubulin monoclonal antibody and horseradish peroxidase (HRP)-conjugated secondary antibody. β-Actin was used for control. Detection of immunoreactive signal was accomplished with Western blot chemiluminescent reagent.

NTUB1 cells [6] = assay: Cell death and morphology of treated NTUB1 cells; type: cell-based, human; conditions: NTUB1, different concentrations, 24 hours, data not shown

Q: What does the source list for `CNC(=O)c1ccc(/C=C/C(=O)c2cc(OC)ccc2OC)cc1` [Compound 8, 4-methylcarbamoyl-2′,5′-dimethoxychalcone]?
A: melting point: 217 to 218 °C; IC50 (PC3 cells [1]; Homo sapiens, PC-3, 72 hours): 2.13 ± 0.21 µM; IC50 (NTUB1 cells [2]; Homo sapiens, NTUB1, 72 hours): 2.2 ± 0.37 µM

Q: With `CCNC(=O)c1ccc(/C=C/C(=O)c2cc(OC)ccc2OC)cc1` [Compound 9, 4-ethylcarbamoyl-2′,5′-dimethoxychalcone] as the molecule, how does the melting point read?
A: The melting point was 213 to 214 °C.

Q: What about the IC50 (PC3 cells [1]; Homo sapiens, PC-3, 72 hours) of the same molecule?
A: Its IC50 is 4.18 ± 0.23 µM.

Q: And the IC50 (NTUB1 cells [2]; Homo sapiens, NTUB1, 72 hours)?
A: The IC50 was 3.76 ± 0.4 µM.

Q: What does the source list for `CCCNC(=O)c1ccc(/C=C/C(=O)c2cc(OC)ccc2OC)cc1` [Compound 10, 4-propylcarbamoyl-2′,5′-dimethoxychalcone]?
A: cytotoxicity against PC3 cells (in words) (PC3 cells [1]): significantly enhanced the cytotoxicity; IC50 (PC3 cells [1]; Homo sapiens, PC-3, 72 hours): 1.5 ± 0.22 µM; cytotoxicity against NTUB1 cells (in words) (NTUB1 cells [2]): significantly enhanced the cytotoxicity; IC50 (NTUB1 cells [2]; Homo sapiens, NTUB1, 72 hours): 2.26 ± 0.31 µM

Q: Which results are given for `COc1ccc(OC)c(C(=O)/C=C/c2ccc(C(=O)N(C)C)cc2)c1` [Compound 12, 4-dimethylcarbamoyl-2′,5′-dimethoxychalcone]?
A: IC50 (PC3 cells [1]; Homo sapiens, PC-3, 72 hours): 4.58 ± 1.05 µM; IC50 (NTUB1 cells [2]; Homo sapiens, NTUB1, 72 hours): 3.89 ± 0.21 µM

Q: Which results are given for `COc1ccc(OC)c(C(=O)/C=C/c2ccc(C(=O)NC3CCCCC3)cc2)c1` [Compound 13, 4-cyclohexylcarbamoyl-2′,5′-dimethoxychalcone]?
A: melting point: 280 to 281 °C; IC50 (PC3 cells [1]; Homo sapiens, PC-3, 72 hours): 6.3 ± 0.59 µM; IC50 (NTUB1 cells [2]; Homo sapiens, NTUB1, 72 hours): 2.25 ± 0.57 µM

Q: With `CCN(CC)C(=O)c1ccc(/C=C/C(=O)c2cc(OC)ccc2OC)cc1` [Compound 14, 4-diethylcarbamoyl-2′,5′-dimethoxychalcone] as the molecule, how does the IC50 (PC3 cells [1]; Homo sapiens, PC-3, 72 hours) read?
A: The IC50 was 3.79 ± 0.56 µM.

Q: What about the IC50 (NTUB1 cells [2]; Homo sapiens, NTUB1, 72 hours) of the same molecule?
A: Its IC50 is 2.69 ± 0.47 µM.

Q: Which “cells arrested at mitosis” value (NTUB1 cells [3]; NTUB1, 1 μM, data not shown) does the source give for `COc1ccc(OC)c(C(=O)C=Cc2ccc(C(=O)N3CCCC3)cc2)c1` [Compound 15, 4-tetrahydropyrrolylcarbamoyl-2′,5′-dimethoxychalcone] here?
A: The value was “induced more NTUB1 cells arrested at mitosis”.

Q: What about the microtubule bundle formation (NTUB1 cells [3]; NTUB1, immuno-fluorescent microscopy, mimicked the effect of paclitaxel) of the same molecule?
A: Its microtubule bundle formation is “induced the microtubule bundle formation”.

Q: And the “cytotoxicity against human normal uroepithelial SV-HUC1 cells (in words)” value (SV-HUC1 cells)?
A: Its value is “less cytotoxicity against human normal uroepithelial SV-HUC1 cells than those of NTUB1 and PC3 cells lines”.

Q: What about the apoptotic cells death (PC3 cells [4]; PC3, 0.3 μM) of the same molecule?
A: The apoptotic cells death was “increase of the apoptotic cells death”.

Q: And the apoptotic cells (PC3 cells [4]; PC3, 1 μM)?
A: Its apoptotic cells is “increase of apoptotic cells”.

Q: And the “cytotoxicity against A549 cells (in words)” value (A549 cells)?
A: The value was “more potent cytotoxic effect against NTUB1 and PC3 cells than that of A549 cells; also recorded: less cytotoxicity”.

Q: And the “cytotoxicity against PC3 cells (in words)” value (PC3 cells [1])?
A: The value was “significantly enhanced the cytotoxicity; also recorded: strongest cytotoxicity”.

Q: What about the IC50 (PC3 cells [1]; 72 hours) of the same molecule?
A: The IC50 was 0.53 µM.

Q: What about the apoptotic cell death (NTUB1 cells [5]) of the same molecule?
A: Its apoptotic cell death is “increase in apoptotic cell death”.

Q: What about the “cell cycle phase arrest” value (NTUB1 cells [5]; vs control) of the same molecule?
A: Its value is “induced G1 phase arrest”.

Q: What about the “α-tubulin level in the pellet (assembled)” value (α-tubulin; NTUB1, various concentrations) of the same molecule?
A: The value was “increased in a dose-dependent manner”.

Q: And the “α-tubulin level in the supernatant (soluble)” value (α-tubulin; NTUB1, various concentrations)?
A: The value was “decreased level in a dose-dependent manner”.

Q: What about the “cytotoxicity against NTUB1 cells (in words)” value (NTUB1 cells [2]) of the same molecule?
A: Its value is “significantly enhanced the cytotoxicity; also recorded: strongest cytotoxicity”.

Q: And the IC50 (NTUB1 cells [2]; 72 hours)?
A: The IC50 was 1.26 ± 0.25 µM.

Q: And the “cell death and cell shape after treatment” value (NTUB1 cells [6])?
A: Its value is “more cell death and rounding up”.

Q: With `COc1ccc(OC)c(C(=O)C=Cc2ccc(C(=O)N(C)CCO)cc2)c1` [Compound 16, 4-(2-hydroxyethyl)methyl-carbamoyl-2′,5′-dimethoxychalcone] as the molecule, how does the IC50 (PC3 cells [1]; 72 hours) read?
A: The IC50 was 5.75 ± 1.27 µM.

Q: And the IC50 (NTUB1 cells [2]; 72 hours)?
A: Its IC50 is 4.42 ± 0.15 µM.

Q: For `COc1ccc(OC)c(C(C=Cc2ccc(C(=O)NC3CC3)cc2)=NC2CC2)c1` [Compound 17, N-cyclopropyl-4-[3-cyclopropylimino-3-(2′,5′-dimethoxy-phenyl)-propenyl]-benzamide], which IC50 (PC3 cells [1]; 72 hours) is on record?
A: The IC50 was 4.26 ± 0.81 µM.

Q: And the IC50 (NTUB1 cells [2]; 72 hours)?
A: Its IC50 is 3.57 ± 0.47 µM.

Q: With `COc1ccc(OC)c(C(=O)/C=C/c2ccc(C(=O)O)s2)c1` [Compound 18] as the molecule, how does the melting point read?
A: Its melting point is 237 to 238 °C.

Q: What about the “cytotoxicity against NTUB1 cells (in words)” value (NTUB1 cells [2]) of the same molecule?
A: The value was “no significant cytotoxicity”.

Q: And the IC50 (NTUB1 cells [2]; Homo sapiens, NTUB1, 72 hours)?
A: Its IC50 is > 50 µM.

Q: Which tubulin assembly (α-tubulin; NTUB1, 500 nM) does the source give for `CC(=O)O[C@H]1C(=O)[C@@]2(C)[C@H]([C@H](OC(=O)c3ccccc3)[C@]3(O)C[C@H](OC(=O)[C@H](O)[C@@H](NC(=O)c4ccccc4)c4ccccc4)C(C)=C1C3(C)C)[C@]1(OC(C)=O)CO[C@@H]1C[C@@H]2O` [Paclitaxel, paclitaxel, reference compound] here?
A: Its tubulin assembly is “stabilized the tubulin assembly”.
